# Literature values, collected in publication PMC12119673, “Apoptotic cell death induced by copper (II), manganese (II) and silver (I) complexes containing bridging dicarboxylate and 1,10-phenanthroline ligands: one of the multi-modes of anticancer activity?” (Biometals, 2025).
# What was measured:
# Parameters in all cases: method as in Kellett et al. [2011]; Slator et al. [2017]
# HaCaT cells = conditions: HaCaT vs colorectal cancer lines; ref Kellett et al. [2011]; Slator et al. [2017]; cited from earlier work
# HT29, SW480 and SW620 = conditions: ref Kellett et al. [2011], Slator et al. [2017]; cited from earlier work
# Galleria Mellonella = conditions: ref Kellett et al. [2011], Slator et al. [2017]; cited from earlier work
structure (smiles),measurement,setting,value
O.O.O=C([O-])CCCCCCC(=O)[O-].[Mn+2].[Mn+2].c1cnc2c(c1)ccc1cccnc12.c1cnc2c(c1)ccc1cccnc12.c1cnc2c(c1)ccc1cccnc12.c1cnc2c(c1)ccc1cccnc12 [[Mn2(μ-oda)(phen)4(H2O)2]^2+],Reduction in potency towards non-cancerous cells,HaCaT cells,almost tenfold reduction in potency
same,Cytotoxicity towards colorectal cancers,"HT29, SW480 and SW620",nano-molar cytotoxicity
same,In vivo tolerance,Galleria Mellonella,well-tolerated
